Test results published in PubChem BioAssay (NCI).
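Tested at 5 concentrations; 48 h exposure; 96-well plates; endpoints linearly interpolated, else capped at highest concentration. At the TGI there is no net growth.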

Legend:
Test in all cases: NCI tumour cell line growth inhibition, 48 h
SK-OV-3 ovarian = system: SK-OV-3 ovarian
MOLT-4 leukemia = system: MOLT-4 leukemia
SR leukemia = system: SR leukemia
LXFL 529 NSCLC = system: LXFL 529 NSCLC
UACC-62 melanoma = system: UACC-62 melanoma
HCT-116 colon = system: HCT-116 colon
RPMI-8226 leukemia = system: RPMI-8226 leukemia
M14 melanoma = system: M14 melanoma
OVCAR-5 ovarian = system: OVCAR-5 ovarian
SF-295 CNS = system: SF-295 CNS
SNB-75 CNS = system: SNB-75 CNS
RXF 393 renal = system: RXF 393 renal
U251 CNS = system: U251 CNS
786-0 renal = system: 786-0 renal
SK-MEL-5 melanoma = system: SK-MEL-5 melanoma
XF 498 CNS = system: XF 498 CNS
SF-539 CNS = system: SF-539 CNS
SN12C renal = system: SN12C renal
HT29 colon = system: HT29 colon
M19-MEL melanoma = system: M19-MEL melanoma
HCT-15 colon = system: HCT-15 colon
COLO 205 colon = system: COLO 205 colon
TK-10 renal = system: TK-10 renal
SK-MEL-2 melanoma = system: SK-MEL-2 melanoma
EKVX NSCLC = system: EKVX NSCLC
DMS 273 small cell lung = system: DMS 273 small cell lung
MALME-3M melanoma = system: MALME-3M melanoma
UO-31 renal = system: UO-31 renal
SK-MEL-28 melanoma = system: SK-MEL-28 melanoma
OVCAR-3 ovarian = system: OVCAR-3 ovarian
LOX IMVI melanoma = system: LOX IMVI melanoma
NCI-H23 lung = system: NCI-H23 lung
SW-620 colon = system: SW-620 colon
NCI-H522 lung = system: NCI-H522 lung
SNB-78 CNS = system: SNB-78 CNS
DMS 114 small cell lung = system: DMS 114 small cell lung
SF-268 CNS = system: SF-268 CNS
HCC-2998 colon = system: HCC-2998 colon
ACHN renal = system: ACHN renal
HOP-92 NSCLC = system: HOP-92 NSCLC
HOP-18 NSCLC = system: HOP-18 NSCLC
KM12 colon = system: KM12 colon
NCI-H226 lung = system: NCI-H226 lung
HOP-62 NSCLC = system: HOP-62 NSCLC
UACC-257 melanoma = system: UACC-257 melanoma
IGROV1 ovarian = system: IGROV1 ovarian
NCI-H460 lung = system: NCI-H460 lung
OVCAR-8 ovarian = system: OVCAR-8 ovarian
KM20L2 colon = system: KM20L2 colon
A549 NSCLC = system: A549 NSCLC
DLD-1 colon = system: DLD-1 colon
HL-60(TB) leukemia = system: HL-60(TB) leukemia
CCRF-CEM leukemia = system: CCRF-CEM leukemia
A498 renal = system: A498 renal
OVCAR-4 ovarian = system: OVCAR-4 ovarian
K-562 leukemia = system: K-562 leukemia
SNB-19 CNS = system: SNB-19 CNS
CAKI-1 renal = system: CAKI-1 renal

## CC[C@H]1CC(=O)c2c(cc3c(c2O)C(=O)c2ccccc2C3=O)[C@@]1(C#N)C(=O)OC(C)(C)C
SK-OV-3 ovarian
  TGI: > 100 µM
MOLT-4 leukemia
  TGI: 8.62 µM
SR leukemia
  TGI: > 100 µM
LXFL 529 NSCLC
  TGI: > 100 µM
UACC-62 melanoma
  TGI: 50.6 µM
HCT-116 colon
  TGI: 8.15 µM
RPMI-8226 leukemia
  TGI: > 100 µM
M14 melanoma
  TGI: 14.5 µM
OVCAR-5 ovarian
  TGI: 46.5 µM
SF-295 CNS
  TGI: 20.9 µM
SNB-75 CNS
  TGI: 32 µM
RXF 393 renal
  TGI: 23.1 µM
U251 CNS
  TGI: 53.3 µM
786-0 renal
  TGI: 46.4 µM
SK-MEL-5 melanoma
  TGI: 3.48 µM
XF 498 CNS
  TGI: 7.67 µM
SF-539 CNS
  TGI: 14.3 µM
SN12C renal
  TGI: 12.7 µM
HT29 colon
  TGI: 10.1 µM
M19-MEL melanoma
  TGI: 15.8 µM
HCT-15 colon
  TGI: 5.07 µM
COLO 205 colon
  TGI: 3.58 µM
TK-10 renal
  TGI: 37.5 µM
SK-MEL-2 melanoma
  TGI: 5.85 µM
EKVX NSCLC
  TGI: 36.2 µM
DMS 273 small cell lung
  TGI: 5.97 µM
MALME-3M melanoma
  TGI: 17.8 µM
UO-31 renal
  TGI: 8.6 µM
SK-MEL-28 melanoma
  TGI: 23 µM
OVCAR-3 ovarian
  TGI: 11 µM
LOX IMVI melanoma
  TGI: 36.8 µM
NCI-H23 lung
  TGI: 11.2 µM
SW-620 colon
  TGI: 13.4 µM
NCI-H522 lung
  TGI: 6.74 µM
SNB-78 CNS
  TGI: > 100 µM
DMS 114 small cell lung
  TGI: 7.97 µM
SF-268 CNS
  TGI: > 100 µM
HCC-2998 colon
  TGI: 17.9 µM
ACHN renal
  TGI: 31.7 µM
HOP-92 NSCLC
  TGI: > 100 µM
HOP-18 NSCLC
  TGI: 14.3 µM
KM12 colon
  TGI: 7.77 µM
NCI-H226 lung
  TGI: 8.82 µM
HOP-62 NSCLC
  TGI: 5.82 µM
UACC-257 melanoma
  TGI: 5.55 µM
IGROV1 ovarian
  TGI: 7.11 µM
NCI-H460 lung
  TGI: 7.54 µM
OVCAR-8 ovarian
  TGI: 15 µM
KM20L2 colon
  TGI: 47.4 µM
A549 NSCLC
  TGI: > 100 µM
DLD-1 colon
  TGI: 7.08 µM

## CC(C)(C)OC(=O)C1=C(O)C(C(=O)OC(C)(C)C)C23CCCCC12C(C(=O)OC(C)(C)C)C(O)=C3C(=O)OC(C)(C)C (stereo not drawn)
SK-OV-3 ovarian
  TGI: > 100 µM
MOLT-4 leukemia
  TGI: > 100 µM
SR leukemia
  TGI: > 100 µM
LXFL 529 NSCLC
  TGI: > 100 µM
UACC-62 melanoma
  TGI: > 100 µM
HCT-116 colon
  TGI: > 100 µM
RPMI-8226 leukemia
  TGI: > 100 µM
M14 melanoma
  TGI: > 100 µM
OVCAR-5 ovarian
  TGI: > 100 µM
HL-60(TB) leukemia
  TGI: > 100 µM
CCRF-CEM leukemia
  TGI: > 100 µM
SF-295 CNS
  TGI: > 100 µM
SNB-75 CNS
  TGI: > 100 µM
RXF 393 renal
  TGI: > 100 µM
U251 CNS
  TGI: > 100 µM
786-0 renal
  TGI: > 100 µM
SK-MEL-5 melanoma
  TGI: > 100 µM
XF 498 CNS
  TGI: > 100 µM
SF-539 CNS
  TGI: > 100 µM
SN12C renal
  TGI: > 100 µM
HT29 colon
  TGI: > 100 µM
M19-MEL melanoma
  TGI: > 100 µM
HCT-15 colon
  TGI: > 100 µM
COLO 205 colon
  TGI: > 100 µM
TK-10 renal
  TGI: > 100 µM
SK-MEL-2 melanoma
  TGI: > 100 µM
EKVX NSCLC
  TGI: > 100 µM
DMS 273 small cell lung
  TGI: > 100 µM
A498 renal
  TGI: > 100 µM
MALME-3M melanoma
  TGI: > 100 µM
UO-31 renal
  TGI: > 100 µM
OVCAR-4 ovarian
  TGI: > 100 µM
OVCAR-3 ovarian
  TGI: > 100 µM
LOX IMVI melanoma
  TGI: > 100 µM
K-562 leukemia
  TGI: > 100 µM
NCI-H23 lung
  TGI: > 100 µM
SW-620 colon
  TGI: > 100 µM
NCI-H522 lung
  TGI: > 100 µM
SNB-78 CNS
  TGI: > 100 µM
DMS 114 small cell lung
  TGI: > 100 µM
SF-268 CNS
  TGI: > 100 µM
HCC-2998 colon
  TGI: > 100 µM
ACHN renal
  TGI: > 100 µM
HOP-92 NSCLC
  TGI: > 100 µM
HOP-18 NSCLC
  TGI: > 100 µM
KM12 colon
  TGI: > 100 µM
NCI-H226 lung
  TGI: > 100 µM
HOP-62 NSCLC
  TGI: > 100 µM
UACC-257 melanoma
  TGI: > 100 µM
SNB-19 CNS
  TGI: > 100 µM
IGROV1 ovarian
  TGI: > 100 µM
NCI-H460 lung
  TGI: > 100 µM
OVCAR-8 ovarian
  TGI: > 100 µM
KM20L2 colon
  TGI: > 100 µM
CAKI-1 renal
  TGI: > 100 µM
A549 NSCLC
  TGI: > 100 µM
DLD-1 colon
  TGI: > 100 µM
